Source: the NIST ThermoML archive (doi:10.1021/acs.jced.7b00773)

Conditions: Liquid; for viscosity: Concentric cylinders viscometry

CCCC[N+]1(C)CCCC1.O=S(=O)([N-]S(=O)(=O)C(F)(F)F)C(F)(F)F
100 kPa
Conditions	viscosity [mPa·s]
293.15 K	98.53
303.15 K	61.87
313.15 K	41.45
323.15 K	29.25
333.15 K	21.53
343.15 K	16.4
353.15 K	12.86
363.15 K	10.33
373.15 K	8.471

Conditions	mass density [kg/m3]
293.15 K, 100 kPa, Vibrating tube method	1398.7
303.15 K, 100 kPa, Vibrating tube method	1389.8
311.6 K, 10000 kPa, Bellows volumetry	1389.1
311.6 K, 20000 kPa, Bellows volumetry	1396.1
311.6 K, 30000 kPa, Bellows volumetry	1402.6
311.6 K, 40000 kPa, Bellows volumetry	1408.7
311.6 K, 50000 kPa, Bellows volumetry	1414.5
311.6 K, 60000 kPa, Bellows volumetry	1420.1
311.6 K, 70000 kPa, Bellows volumetry	1425.5
311.6 K, 80000 kPa, Bellows volumetry	1430.7
311.6 K, 90000 kPa, Bellows volumetry	1435.5
311.6 K, 100000 kPa, Bellows volumetry	1440.4
311.6 K, 110000 kPa, Bellows volumetry	1445.5
311.6 K, 120000 kPa, Bellows volumetry	1449.8
311.6 K, 130000 kPa, Bellows volumetry	1454.3
311.6 K, 140000 kPa, Bellows volumetry	1458.6
311.6 K, 150000 kPa, Bellows volumetry	1462.9
311.6 K, 160000 kPa, Bellows volumetry	1467.2
311.6 K, 170000 kPa, Bellows volumetry	1471.2
311.6 K, 180000 kPa, Bellows volumetry	1475.1
311.6 K, 190000 kPa, Bellows volumetry	1479
311.6 K, 200000 kPa, Bellows volumetry	1483
313.15 K, 100 kPa, Vibrating tube method	1381
323.15 K, 100 kPa, Vibrating tube method	1372.4
331.5 K, 10000 kPa, Bellows volumetry	1372.4
331.5 K, 20000 kPa, Bellows volumetry	1379.6
331.5 K, 30000 kPa, Bellows volumetry	1386.5
331.5 K, 40000 kPa, Bellows volumetry	1393
331.5 K, 50000 kPa, Bellows volumetry	1399.1
331.5 K, 60000 kPa, Bellows volumetry	1405
331.5 K, 70000 kPa, Bellows volumetry	1410.6
331.5 K, 80000 kPa, Bellows volumetry	1416
331.5 K, 90000 kPa, Bellows volumetry	1421.3
331.5 K, 100000 kPa, Bellows volumetry	1426.6
331.5 K, 110000 kPa, Bellows volumetry	1431.4
331.5 K, 120000 kPa, Bellows volumetry	1436
331.5 K, 130000 kPa, Bellows volumetry	1440.6
331.5 K, 140000 kPa, Bellows volumetry	1445.1
331.5 K, 150000 kPa, Bellows volumetry	1449.5
331.5 K, 160000 kPa, Bellows volumetry	1454
331.5 K, 170000 kPa, Bellows volumetry	1458.1
331.5 K, 180000 kPa, Bellows volumetry	1462.1
331.5 K, 190000 kPa, Bellows volumetry	1466.1
331.5 K, 200000 kPa, Bellows volumetry	1470.2
333.15 K, 100 kPa, Vibrating tube method	1363.9
343.15 K, 100 kPa, Vibrating tube method	1355.5
351.6 K, 10000 kPa, Bellows volumetry	1355.8
351.6 K, 20000 kPa, Bellows volumetry	1363.3
351.6 K, 30000 kPa, Bellows volumetry	1370.6
351.6 K, 40000 kPa, Bellows volumetry	1377.4
351.6 K, 50000 kPa, Bellows volumetry	1383.9
351.6 K, 60000 kPa, Bellows volumetry	1390
351.6 K, 70000 kPa, Bellows volumetry	1395.9
351.6 K, 80000 kPa, Bellows volumetry	1401.7
351.6 K, 90000 kPa, Bellows volumetry	1407.4
351.6 K, 100000 kPa, Bellows volumetry	1412.4
351.6 K, 110000 kPa, Bellows volumetry	1417.5
351.6 K, 120000 kPa, Bellows volumetry	1422.3
351.6 K, 130000 kPa, Bellows volumetry	1427.1
351.6 K, 140000 kPa, Bellows volumetry	1431.7
351.6 K, 150000 kPa, Bellows volumetry	1436.5
351.6 K, 160000 kPa, Bellows volumetry	1440.8
351.6 K, 170000 kPa, Bellows volumetry	1445.1
351.6 K, 180000 kPa, Bellows volumetry	1449.2
351.6 K, 190000 kPa, Bellows volumetry	1453.3
351.6 K, 200000 kPa, Bellows volumetry	1457.4
353.15 K, 100 kPa, Vibrating tube method	1347.1
363.15 K, 100 kPa, Vibrating tube method	1338.7
371.6 K, 10000 kPa, Bellows volumetry	1339.4
371.6 K, 20000 kPa, Bellows volumetry	1347.4
371.6 K, 30000 kPa, Bellows volumetry	1355.3
371.6 K, 40000 kPa, Bellows volumetry	1362.4
371.6 K, 50000 kPa, Bellows volumetry	1369.3
371.6 K, 60000 kPa, Bellows volumetry	1375.8
371.6 K, 70000 kPa, Bellows volumetry	1382
371.6 K, 80000 kPa, Bellows volumetry	1387.9
371.6 K, 90000 kPa, Bellows volumetry	1393.8
371.6 K, 100000 kPa, Bellows volumetry	1399
371.6 K, 110000 kPa, Bellows volumetry	1404.3
371.6 K, 120000 kPa, Bellows volumetry	1409.6
371.6 K, 130000 kPa, Bellows volumetry	1414.5
371.6 K, 140000 kPa, Bellows volumetry	1419.3
371.6 K, 150000 kPa, Bellows volumetry	1424
371.6 K, 160000 kPa, Bellows volumetry	1428.4
371.6 K, 170000 kPa, Bellows volumetry	1433
371.6 K, 180000 kPa, Bellows volumetry	1437.4
371.6 K, 190000 kPa, Bellows volumetry	1441.6
371.6 K, 200000 kPa, Bellows volumetry	1445.7
373.15 K, 100 kPa, Vibrating tube method	1329.8
391.6 K, 10000 kPa, Bellows volumetry	1323.3
391.6 K, 20000 kPa, Bellows volumetry	1331.9
391.6 K, 30000 kPa, Bellows volumetry	1340.1
391.6 K, 40000 kPa, Bellows volumetry	1347.7
391.6 K, 50000 kPa, Bellows volumetry	1354.8
391.6 K, 60000 kPa, Bellows volumetry	1361.5
391.6 K, 70000 kPa, Bellows volumetry	1368.2
391.6 K, 80000 kPa, Bellows volumetry	1374.3
391.6 K, 90000 kPa, Bellows volumetry	1380.3
391.6 K, 100000 kPa, Bellows volumetry	1385.9
391.6 K, 110000 kPa, Bellows volumetry	1391.3
391.6 K, 120000 kPa, Bellows volumetry	1396.9
391.6 K, 130000 kPa, Bellows volumetry	1401.9
391.6 K, 140000 kPa, Bellows volumetry	1406.8
391.6 K, 150000 kPa, Bellows volumetry	1411.5
391.6 K, 160000 kPa, Bellows volumetry	1416.3
391.6 K, 170000 kPa, Bellows volumetry	1420.8
391.6 K, 180000 kPa, Bellows volumetry	1425.3
391.6 K, 190000 kPa, Bellows volumetry	1429.7
391.6 K, 200000 kPa, Bellows volumetry	1434
411.3 K, 10000 kPa, Bellows volumetry	1307.4
411.3 K, 20000 kPa, Bellows volumetry	1316.7
411.3 K, 30000 kPa, Bellows volumetry	1325.3
411.3 K, 40000 kPa, Bellows volumetry	1333.4
411.3 K, 50000 kPa, Bellows volumetry	1341
411.3 K, 60000 kPa, Bellows volumetry	1348
411.3 K, 70000 kPa, Bellows volumetry	1354.7
411.3 K, 80000 kPa, Bellows volumetry	1361.2
411.3 K, 90000 kPa, Bellows volumetry	1367.3
411.3 K, 100000 kPa, Bellows volumetry	1373.4
411.3 K, 110000 kPa, Bellows volumetry	1379
411.3 K, 120000 kPa, Bellows volumetry	1384.4
411.3 K, 130000 kPa, Bellows volumetry	1389.7
411.3 K, 140000 kPa, Bellows volumetry	1394.9
411.3 K, 150000 kPa, Bellows volumetry	1400
411.3 K, 160000 kPa, Bellows volumetry	1404.8
411.3 K, 170000 kPa, Bellows volumetry	1409.4
411.3 K, 180000 kPa, Bellows volumetry	1414.1
411.3 K, 190000 kPa, Bellows volumetry	1418.5
411.3 K, 200000 kPa, Bellows volumetry	1422.8
